Test system: HOP-62 multicell spheroids with HUVEC/MSC, viability
Experiment: Anticancer human tumor HOP-62 cell line growth inhibition [KRAS2];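 note: viability read after a week of compound exposure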;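 for viability, T/C: 100% = DMSO vehicle-treated spheroids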
Settings: for IC50: curve of first compound; for viability, T/C: stronger effect = lower value
In short: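 KRAS-mutant tumor cells were grown as spheroids with HUVEC endothelial cells and human MSCs as stroma. Targeted agents were tested alone and with KRAS pathway inhibitors. Doses started at or near clinical Cmax, or 10 microM, descending half-log.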

[1] = second compound 0.1 µM, first compound 0.0316 µM
[2] = second compound 0.1 µM, first compound 0.1 µM
[3] = second compound 0.1 µM, first compound 0.316 µM
[4] = second compound 0.1 µM, first compound 1 µM
[5] = second compound 0.1 µM, first compound 3.16 µM
[6] = second compound 0.316 µM, first compound 0.0316 µM
[7] = second compound 0.316 µM, first compound 0.1 µM
[8] = second compound 0.316 µM, first compound 0.316 µM
[9] = second compound 0.316 µM, first compound 1 µM
[10] = second compound 0.316 µM, first compound 3.16 µM
[11] = second compound 1 µM, first compound 0.0316 µM
[12] = second compound 1 µM, first compound 0.1 µM
[13] = second compound 1 µM, first compound 0.316 µM
[14] = second compound 1 µM, first compound 1 µM
[15] = second compound 1 µM, first compound 3.16 µM
[16] = second compound 3.16 µM, first compound 0.0316 µM
[17] = second compound 3.16 µM, first compound 0.1 µM
[18] = second compound 3.16 µM, first compound 0.316 µM
[19] = second compound 3.16 µM, first compound 1 µM
[20] = second compound 3.16 µM, first compound 3.16 µM
[21] = second compound 10 µM, first compound 0.0316 µM
[22] = second compound 10 µM, first compound 0.1 µM
[23] = second compound 10 µM, first compound 0.316 µM
[24] = second compound 10 µM, first compound 1 µM
[25] = second compound 10 µM, first compound 3.16 µM
[26] = second compound 0.1 µM, first compound 10 µM
[27] = second compound 0.316 µM, first compound 10 µM
[28] = second compound 1 µM, first compound 10 µM
[29] = second compound 3.16 µM, first compound 10 µM
[30] = second compound 10 µM, first compound 10 µM

SMILES	IC50 (second compound 0.1 µM)	IC50 (second compound 0.316 µM)	IC50 (second compound 1 µM)	IC50 (second compound 3.16 µM)	IC50 (second compound 10 µM)	viability, T/C [1]	viability, T/C [2]	viability, T/C [3]	viability, T/C [4]	viability, T/C [5]	viability, T/C [6]	viability, T/C [7]	viability, T/C [8]	viability, T/C [9]	viability, T/C [10]	viability, T/C [11]	viability, T/C [12]	viability, T/C [13]	viability, T/C [14]	viability, T/C [15]	further results
CC1COCCN1c1cc(-c2ccnn2C)c2ccnc(-c3ccn[nH]3)c2n1 (stereo not given) + CC1OCC2(CCN(c3cnc(Sc4ccnc(N)c4Cl)c(N)n3)CC2)C1N	39.8 nM	35.8 nM	21.8 nM	14.6 nM	< 10 nM	56.7%	23%	12.7%	11.5%	13.7%	53.2%	23.8%	14%	11.9%	11.9%	37%	20.2%	13.4%	10.1%	8.68%	viability, T/C (second compound 0.1 µM, first compound 0.01 µM): 94.7%; viability, T/C (second compound 0.316 µM, first compound 0.01 µM): 87.3%; viability, T/C (second compound 1 µM, first compound 0.01 µM): 76.6%; viability, T/C (second compound 3.16 µM, first compound 0.01 µM): 59.4%; viability, T/C [16]: 30.6%; viability, T/C [17]: 18.1%; viability, T/C [18]: 11.7%; viability, T/C [19]: 9.08%; viability, T/C [20]: 9.24%; viability, T/C (second compound 10 µM, first compound 0.01 µM): 46.9%; viability, T/C [21]: 26.4%; viability, T/C [22]: 16.8%; viability, T/C [23]: 13.6%; viability, T/C [24]: 11.2%; viability, T/C [25]: 9.36%
CCNC(=O)CC1N=C(c2ccc(Cl)cc2)c2cc(OC)ccc2-n2c(C)nnc21 (stereo not given) + CC1OCC2(CCN(c3cnc(Sc4ccnc(N)c4Cl)c(N)n3)CC2)C1N	250 nM	200 nM	136 nM	50.8 nM	< 31.6 nM	103%	74.5%	45.2%	27.6%	28.6%	96.2%	65.5%	40.9%	25.1%	24.3%	75.9%	55.6%	34.5%	19.8%	22.1%	viability, T/C [26]: 28.1%; viability, T/C [27]: 23.6%; viability, T/C [28]: 19.7%; viability, T/C [16]: 60%; viability, T/C [17]: 35.5%; viability, T/C [18]: 25.9%; viability, T/C [19]: 21.2%; viability, T/C [20]: 16.1%; viability, T/C [29]: 15.3%; viability, T/C [21]: 32.4%; viability, T/C [22]: 21.7%; viability, T/C [23]: 18.6%; viability, T/C [24]: 11.5%; viability, T/C [25]: 11.7%; viability, T/C [30]: 9.82%
Cn1nccc1Nc1nccc(-c2cc3c(s2)C(C)(C)N(CCN2CCOCC2)C3=O)n1 + CC1OCC2(CCN(c3cnc(Sc4ccnc(N)c4Cl)c(N)n3)CC2)C1N	803 nM	331 nM	97.8 nM	< 31.6 nM	< 31.6 nM	94.3%	85.4%	70%	48.6%	21.4%	85.2%	71.6%	51.8%	30.8%	21.8%	62.9%	48.4%	36%	21.2%	18.1%	viability, T/C [26]: 24.1%; viability, T/C [27]: 20.5%; viability, T/C [28]: 18.7%; viability, T/C [16]: 40.2%; viability, T/C [17]: 35.4%; viability, T/C [18]: 31.9%; viability, T/C [19]: 15.7%; viability, T/C [20]: 14.9%; viability, T/C [29]: 16.6%; viability, T/C [21]: 29.6%; viability, T/C [22]: 35.7%; viability, T/C [23]: 18.7%; viability, T/C [24]: 17.1%; viability, T/C [25]: 13.7%; viability, T/C [30]: 11.9%

From PubChem BioAssay AID1963858 (Molecular Pharmacology Branch, DTP, NCI, 2024)
